Several values for one entry are separate records, joined by “and”; a condition that tells them apart may be missing. Identical values can stand only once. Like-named read-outs stand apart in the source and are kept apart here.
Experiments:
[1] = molecular target: T1, human HK 4 (human glucokinase, hGlk) (Homo sapiens, UniProt P35557); experiment: Specificity assay against human HK 4 (human glucokinase, hGlk); type: biochemical; details: for inhibition at 10 µM: read-out: % Inhibition of hGlck (10 µM)
T1 construct: His tag (from pQE30); made in house; host or cells: E. coli M15 (pREP)
T1 sequence (P35557 1-465): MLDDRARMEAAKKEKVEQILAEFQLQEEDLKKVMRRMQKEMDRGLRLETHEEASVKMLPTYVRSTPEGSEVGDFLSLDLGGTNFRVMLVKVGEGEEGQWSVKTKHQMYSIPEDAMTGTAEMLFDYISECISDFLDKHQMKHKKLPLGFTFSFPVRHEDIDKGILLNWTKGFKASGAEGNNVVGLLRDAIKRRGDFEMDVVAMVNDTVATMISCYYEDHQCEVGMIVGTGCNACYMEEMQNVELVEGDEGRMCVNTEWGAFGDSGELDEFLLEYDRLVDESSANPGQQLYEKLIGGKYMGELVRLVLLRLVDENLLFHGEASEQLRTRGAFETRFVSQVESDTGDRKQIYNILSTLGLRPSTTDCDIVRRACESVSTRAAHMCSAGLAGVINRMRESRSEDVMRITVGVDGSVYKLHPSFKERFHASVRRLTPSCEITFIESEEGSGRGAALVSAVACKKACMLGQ
Protocol: Additional specificity assays were performed using human HK 4 (human glucokinase, hGlk, GenBank accession no. BC001890) that was expressed from a cloned cDNA (OPEN Biosystems, Huntsville, AL) in pQE30.

[2] = test system: PF T. brucei parasites (29-13, a 427 strain); experiment: Procyclic form (PF) parasite growth assay; type: cell-based; details: Trypanosoma brucei, A-427, 48 h, read-out: % PF Growth Inhibition (10 µM)
Protocol: Plates were then incubated for 1 hr under standard culture conditions. Fluorescence of samples was then characterized as above.

Leishmania promastigotes = experiment: Leishmania promastigote specificity assay; type: cell-based, L. major; details: 44 h
Protocol: Cell-based specificity assays were performed as previously described. Briefly, mammalian cell line and Leishmania promastigote assays were performed in final volumes of 25 µL using our previously described 384-well microtiter format. All mammalian cell lines were cultured and maintained in complete growth medium preparations according to ATCC specifications (ATCC, Manassas, VA). Leishmania promastigotes were cultured as previously described. […] Vehicle and positive controls were 1% and 10% DMSO, respectively. For mammalian cells, assay plates were incubated for 44–46 h at 37°C in the presence of 5% CO2 and for the Leishmania promastigotes, assay plates were incubated for 44 h at 28°C with 5% CO2. Five µL of CellTiter Blue reagent was added to each assay plate well and incubated for 2–4 h at 37°C with 5% CO2. Data were captured on a Molecular Devices SpectraMax M5 (excitation A560; emission A590).

[3] = molecular target: T. brucei lysate-derived TbHK1 (Trypanosoma brucei brucei, UniProt Q38C42); experiment: Inhibition assay of lysate-derived TbHK; type: biochemical; details: read-out: IC50 against T. brucei lysate-derived TbHK1 enzymatic activity; 2×10^5 BSF cell equivalents, 15 min preincubation at RT
Chain of T. brucei lysate-derived TbHK1 (Q38C42 entry or part of it): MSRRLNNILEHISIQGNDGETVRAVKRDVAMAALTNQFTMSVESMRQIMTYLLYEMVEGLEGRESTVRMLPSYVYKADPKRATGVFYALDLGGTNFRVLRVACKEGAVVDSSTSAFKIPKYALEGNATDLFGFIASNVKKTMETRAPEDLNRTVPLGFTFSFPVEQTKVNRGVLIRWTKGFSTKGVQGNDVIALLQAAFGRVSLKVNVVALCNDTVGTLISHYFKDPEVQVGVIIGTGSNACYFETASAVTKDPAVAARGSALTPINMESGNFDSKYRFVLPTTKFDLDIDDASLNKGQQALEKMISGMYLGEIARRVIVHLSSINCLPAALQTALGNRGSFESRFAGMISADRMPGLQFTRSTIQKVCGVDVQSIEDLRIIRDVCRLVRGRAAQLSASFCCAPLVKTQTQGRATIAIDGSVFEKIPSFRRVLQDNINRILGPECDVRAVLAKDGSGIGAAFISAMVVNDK
Protocol: (§1) Parasite lysates from BSF parasites were prepared by incubation (5 min on ice) of 1.5×10^7 cells in lysis buffer (0.1 M TEA, pH 7.4, and 0.1% Triton X-100) supplemented with 1 mM PMSF, 5 µg/ml leupeptin, and 100 µg/ml TLCK. In triplicate, cell equivalents (2×10^5) were incubated with increasing concentrations of inhibitor for 15 minutes at RT prior to initiation of the coupled reaction. In short, the 200 µl reactions included 50 mM TEA, pH 7.4, 33 mM MgCl2, 20 mM glucose, 5.25 mM ATP, 0.75 mM NADP, and 0.1 units of G6PDH, with kinetic analyses performed using KaleidaGraph 4.1 (Synergy Software, Reading, PA).

[4] = test system: BSF T. brucei parasites (cell line 90-13, a 427 strain); experiment: T. brucei BSF viability assay (CellTiter Blue); type: cell-based, Trypanosoma brucei; details: for EC50: Trypanosoma brucei; for Toxicity to BSF at 10 µM: cell density after 72 hr
Protocol: CellTiter Blue (Promega, Madison WI) was added (20 µl) and the plates incubated an additional 3 hr under standard culture conditions.

TbHK1 [5] = molecular target: T2, TbHK1 (Trypanosoma brucei brucei, UniProt Q38C42); experiment: Kinetic analysis of TbHK1 inhibition with respect to ATP (Lineweaver-Burk); type: biochemical
T2 sequence (Q38C42 entry or part of it): as above
Protocol: as §1
Assays were performed as described for cell lystates (see Materials and Methods) with ATP concentrations varied.

TbHK1 [6] = molecular target: T2, TbHK1; experiment: TbHK1 coupled enzyme HTS assay (G6PDH coupled, bacterially expressed rTbHK1); type: biochemical; details: for Fold less potent upon resupply (TbHK1 IC50 versus cherry-picked compound): resupplied versus cherry-picked compound
Protocol: For purification of bacterially expressed TbHK1 (rTbHK1), a previously described protocol was modified to increase yield. Briefly, a starter culture of E. coli M15(pREP) harboring pQE30 (Qiagen, Valencia, CA) with the TbHK1 gene cloned in frame of a 6-His tagging sequence was grown in ECPM1 [9] and then inoculated into a 5 L bioreactor (Biostat B, B. Braun Biotech International, Allentown, PA) and grown at 37°C. At OD600 between 3–5, the culture was induced with IPTG (0.8 mM), grown without supplement O2 (37°C, 16 hr), and cells collected by centrifugation (5000×g, 20 min, 4°C). The pellet was resuspended in lysis buffer (50 mM NaPO4, pH 8.1, 5 mM glucose, 150 mM NaCl, and 0.1% Tween) and lysed by using a cell disruptor (Constant Cell Disruption Systems, Sanford, NC). The resulting supernatant was applied (5 ml/min) to a 50 ml ProBind column (Invitrogen, Eugene, OR) on a FPLC (GE Lifesciences, Piscataway, NJ) and protein eluted by gradient (5 to 250 mM imidazole) in lysis buffer. Fractions were screened using HK activity assays and Western blotting and those containing rTbHK1 were pooled, concentrated, and applied to a HiTrap SP HP column (GE Lifesciences, Piscataway, NJ).
TbHK1 assays were an adaptation of a coupled enzyme HK assay to a 384-well format, [10]. Briefly, test and control compounds (30 µM in 15 µL volume) were added to a 384 well black, opaque microtiter plate using a Velocity 11 V-prep (Santa Clara, CA) for a final test compound concentration of 10 µM. […] The 45 µL reaction mixture was incubated at RT for 2 hr and then quenched with 5 µL EDTA (500 mM). The resulting signal, which remained stable for up to 5 hr after addition of stop reagent, was collected on a Molecular Devices SpectraMax M5 (absorbance at OD340)(Sunnyvale, CA).

[7] = cited from earlier work
[8] = test system: cellular G6P levels in BSF parasites; experiment: Cellular G6P levels in BSF parasites grown with compound; type: cell-based, Trypanosoma brucei
TbHK1 [9] = molecular target: T2, TbHK1; parameters: method as in Lyda and Morris, unpublished; details: previously identified inhibitor; ref Lyda and Morris, unpublished; cited from earlier work
[10] = procyclic form parasites, 10 µM, 2 days
[11] = promastigotes, read-out: L. major EC50
[12] = A-427, bloodstream form parasites, 3 days (72 hr), read-out: BSF EC50
[13] = resupplied compound, bacterially expressed TbHK1, read-out: IC50 (µM) Resupply
[14] = A-427, 72 h, read-out: BSF EC50 (µM)

Row | SMILES | inhibition at 10 µM ([1]; 10 µM compound) | inhibition at 10 µM [2, 10] | EC50 (Leishmania promastigotes; [11]) | EC50 [4, 12] | IC50 (TbHK1 [6]; [13]) | Toxicity to BSF at 10 µM [4] | also measured
1 | O=c1c2ccccc2[se]n1-c1ccccc1 [Ebselen, 2-phenyl-1,2-benzisoselenazol-3(2H)-one, reference compound] | 97.8 ± 0.1% | 51 ± 0.16% | 4.1 ± 0.4 µM | 2.9 ± 0.28 µM | 0.05 ± 0.03 µM | – | IC50 [3]: 0.43 ± 0.02 µM; Ki (TbHK1 [5]): 6.13 µM; Nature of TbHK1 inhibition (TbHK1 [5]; with respect to ATP): mixed inhibitors; Brain levels as percent of plasma levels [7]: 21%; Serum values ([7]; single oral dose (100 mg/kg)): 4 to 5 µM; Reduction in cellular G6P ([8]; 1 hour, 10 times the EC50 (30 µM ebselen, 1 µM SID 17387000), versus untreated parasites): 56%; Reduction in cellular G6P ([8]; 4 hours, 10 times the EC50 (30 µM ebselen, 1 µM SID 17387000), versus untreated parasites): 70%
2 | CCOC(=O)Cc1csc(-n2sc3ccccc3c2=O)n1 [SID 3716597] | 7.8 ± 7.1% | 27 ± 0.08% | > 12.5 µM | > 10 µM | 9.3 ± 0.3 µM | not toxic | –
3 | CCCCCCCCCCCNC(=O)c1ccoc1C [SID 14728414] | 1.9 ± 7% | 0% | > 12.5 µM | > 10 µM | 41.7 ± 3 µM | not toxic | % Inhibition of hGlck (10 µM) ([1]; 10 µM compound): minimal impact on the enzyme; Fold less potent upon resupply (TbHK1 IC50 versus cherry-picked compound) (TbHK1 [6]): 6.6 fold
4 | O=C(Cn1sc2ccccc2c1=O)NC12CC3CC(CC(C3)C1)C2 [SID 16952891] | 44.9 ± 9.9% | 47 ± 0.15% | > 12.5 µM | 0.3 ± 0.079 µM | 2.6 ± 0.2 µM | – | –
5 | COC1=C/C(=C/C(C#N)=C2/NC3=C(CCCC3)S2)C=CC1=O [SID 17386310] | 70.3 ± 3.6% | 50 ± 0.15% | 2.6 ± 0.1 µM | 0.038 ± 0.0038 µM | 33.6 ± 10.2 µM | – | % Inhibition of hGlck (10 µM) ([1]; 10 µM compound): more potent inhibitor; Fold less potent upon resupply (TbHK1 IC50 versus cherry-picked compound) (TbHK1 [6]): 7.5 fold
6 | O=c1c2ccccc2sn1-c1ccccc1 [SID 17387000, 2-phenyl-1,2-benzisothiazol-3(2H)-one] | – | – | – | – | – | – | inhibition at 10 µM [1]: 6.7 ± 9.4%; inhibition at 10 µM [2]: 48 ± 0.15%; EC50 (Leishmania promastigotes; read-out: L. major EC50 (µM)): 1.9 ± 0.2 µM; EC50 [4, 14]: 0.03 ± 0.067 µM; Reduction in cellular G6P [8]: 29% and 18%
7 | C/C(=C/CCC(C)[C@H]1CC[C@@]2(C)C3=C(CC[C@]12C)[C@@]1(C)CCC(=O)C(C)(C)[C@@H]1CC3)C(=O)O (some centres unmarked) [SID 22401406] | 0% | 0% | > 12.5 µM | > 10 µM | – | not toxic | % Inhibition of hGlck (10 µM) ([1]; 10 µM compound): minimal impact on the enzyme; IC50 (TbHK1 [6]): 2.3 ± 0.3 µM
8 | Cc1ccccc1-n1sc2cc(F)ccc2c1=O [SID 24785302] | 6.9 ± 4.2% | 47 ± 0.15% | 1.9 ± 0.2 µM | 0.042 ± 0.0028 µM | 4.2 ± 1 µM | – | –
9 | COc1ccc(C(=O)Nc2cc(Cl)ccc2C(=O)O)cc1 [SID 24797131] | 6.3 ± 8.8% | 0% | > 12.5 µM | > 10 µM | 11.4 ± 3.2 µM | not toxic | –
10 | O=c1c2ccccc2sn1-c1nccs1 [SID 24830882] | 88.8 ± 4.9% | – | – | – | – | – | inhibition at 10 µM [2]: 8.6 ± 0.03%; EC50 (Leishmania promastigotes; read-out: L. major EC50 (µM)): > 12.5 µM; EC50 [4, 14]: 0.83 ± 0.2 µM; IC50 (TbHK1 [6]): 16.9 ± 0.1 µM
11 | O=c1c(O)c(-c2cc(O)c(O)c(O)c2)oc2cc(O)cc(O)c12 [myricetin, reference compound] | – | – | – | – | – | – | inhibition at 10 µM (TbHK1 [6]; 10 µM, LOPAC validation screen, duplicate, read-out: Inhibition of TbHK1 enzymatic activity at 10 µM (LOPAC screen)): ≥ 40%
12 | O=c1c(O)c(-c2ccc(O)c(O)c2)oc2cc(O)cc(O)c12 [quercetin] | – | – | – | – | – | – | IC50 (TbHK1 [9]): ~85 µM

Reference: publication PMC2854128, “A Target-Based High Throughput Screen Yields Trypanosoma brucei Hexokinase Small Molecule Inhibitors with Antiparasitic Activity” (PLoS Neglected Tropical Diseases, 2010)
